Molecular target: T1, human NK3 receptor (Homo sapiens, UniProt P29371)
T1 construct: expressed in transfected cells; host or cells: HEK293 cells, transiently transfected; membranes
T1 sequence (P29371 1-465): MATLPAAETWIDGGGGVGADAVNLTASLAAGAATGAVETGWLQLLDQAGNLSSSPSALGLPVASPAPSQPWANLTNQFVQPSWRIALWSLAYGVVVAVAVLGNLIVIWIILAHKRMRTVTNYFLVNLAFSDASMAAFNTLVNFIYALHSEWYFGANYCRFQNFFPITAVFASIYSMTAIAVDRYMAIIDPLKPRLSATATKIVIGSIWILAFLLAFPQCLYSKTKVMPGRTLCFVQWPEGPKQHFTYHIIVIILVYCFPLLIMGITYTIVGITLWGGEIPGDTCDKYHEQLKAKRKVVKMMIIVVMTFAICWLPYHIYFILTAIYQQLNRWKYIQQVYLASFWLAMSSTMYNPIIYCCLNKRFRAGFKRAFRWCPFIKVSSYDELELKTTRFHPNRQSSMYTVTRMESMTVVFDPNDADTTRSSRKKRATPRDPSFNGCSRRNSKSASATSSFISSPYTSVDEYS
Assay: [3H]SR142801 competition binding assay
Details: not given
Experimental: [^3H]SR142801 Competition Binding Assay
hNK3 receptor binding experiment were performed using [^3H]SR142801 (Catalog No. TRK1035, specific activity: 74.0 Ci/mmol, Amersham, GE Healthcare UK limited, Buckinghamshire, UK) and membrane isolated from HEK293 cells transiently expressing recombinant human NK3 receptor. After thawing, the membrane homogenates were centrifuged at 48,000×g for 10 min at 4° C., the pellets were resuspended in the 50 mM Tris-HCl, 4 mM MnCl2, 1 μM phosphoramidon, 0.1% BSA binding buffer at pH 7.4 to a final assay concentration of 5 μg protein/well. For inhibition experiments, membranes were incubated with [^3H]SR142801 at a concentration equal to KD value of radioligand and 10 concentrations of the inhibitory compound (0.0003-10 μM) (in a total reaction volume of 500 μl) for 75 min at room temperature (RT). At the end of the incubation, membranes were filtered onto unitfilter (96-well white microplate with bonded GF/C filter preincubated 1 h in 0.3% PEI+0.3% BSA, Packard BioScience, Meriden, Conn.) with a Filtermate 196 harvester (Packard BioScience) and washed 4 times with ice-cold 50 mM Tris-HCl, pH 7.4 buffer. Nonspecific binding was measured in the presence of 10 μM SB222200 for both radioligands. The radioactivity on the filter was counted (5 min) on a Packard Top-count microplate scintillation counter with quenching correction after addition of 45 μl of microscint 40 (Canberra Packard S.A., Zürich, Switzerland) and shaking for 1 h. Inhibition curves were fitted according to the Hill equation: y=100/(1+(x/IC50)^nH), where nH=slope factor using Excel-fit 4 software (Microsoft). IC50 values were derived from the inhibition curve and the affinity constant (Ki) values were calculated using the Cheng-Prussoff equation Ki=IC50/(1+[L]/KD) where [L] is the concentration of radioligand and KD is its dissociation constant at the receptor, derived from the saturation isotherm. All experiments were performed in duplicate and the mean±standard error (SEM) of the individual Ki values was calculated.

Question: `CN1C(=O)OC2(CCN(CCC(C(=O)N3CCC(F)CC3)c3ccc(Cl)c(Cl)c3)CC2)c2cc(F)ccc21` (stereo not drawn) [Example 43, 1′-[3-(3,4-dichlorophenyl)-4-(4-fluropiperidin-1-yl)-4-oxobutyl]-6-fluoro-1-methylspiro[3,1-benzoxazine-4,4′-piperidin]-2(1H)-one] was tested. Which Ki did it give?
Answer: The Ki was 0.0619 µM.

Question: `O=C1Nc2ccc(F)cc2C2(CCN(CCC(C(=O)NCc3cccc(C(F)(F)F)c3)c3ccc(F)cc3)CC2)O1` (stereo not drawn) [Example 61, 4-(6-fluoro-2-oxo-1,2-dihydro-1′H-spiro[3,1-benzoxazine-4,4′-piperidin]-1′-yl)-2-(4-fluorophenyl)-N-[3-(trifluoromethyl)benzyl]butanamide] was tested. Which Ki did it give?
Answer: Its Ki is 0.0885 µM.

Same assay, conditions: [3H]SR142801 displacement, membranes of HEK293 cells transiently expressing recombinant human NK3 receptor; read-out: hNK3 Ki

Question: How did the Ki turn out when `O=C1Nc2ccc(F)cc2C2(CCN(CCC(C(=O)NCc3ccc(Cl)cc3Cl)c3ccc(Cl)c(Cl)c3)CC2)O1` (stereo not drawn) [Example 62, N-(2,4-dichlorobenzyl)-2-(3,4-dichlorophenyl)-4-(6-fluoro-2-oxo-1,2-dihydro-1′H-spiro[3,1-benzoxazine-4,4′-piperidin]-1′-yl)butanamide] was run?
Answer: Its Ki is 0.01 µM.

Question: With `CN(CCc1ccccc1)C(=O)C(CCN1CCC2(CC1)OC(=O)Nc1ccc(F)cc12)c1ccc(Cl)c(Cl)c1` (stereo not drawn) [Example 65, 2-(3,4-dichlorophenyl)-4-(6-fluoro-2-oxo-1,2-dihydro-1′H-spiro[3,1-benzoxazine-4,4′-piperidin]-1′-yl)-N-methyl-N-(2-phenylethyl)butanamide] as the compound, how does the Ki read?
Answer: Its Ki is 0.0707 µM.

Question: Which Ki does the source give for `CN(Cc1ccc(N2CCOCC2)cc1)C(=O)C(CCN1CCC2(CC1)OC(=O)Nc1ccc(F)cc12)c1ccc(Cl)c(Cl)c1` (stereo not drawn) [Example 70, 2-(3,4-dichlorophenyl)-4-(6-fluoro-2-oxo-1,2-dihydro-1′H-spiro[3,1-benzoxazine-4,4′-piperidin]-1′-yl)-N-methyl-N-(4-morpholin-4-ylbenzyl)butanamide] here?
Answer: Its Ki is 0.098 µM.

Question: Which Ki does the source give for `CN(Cc1ccc(-c2ccncc2)cc1)C(=O)C(CCN1CCC2(CC1)OC(=O)Nc1ccc(F)cc12)c1ccc(Cl)c(Cl)c1` (stereo not drawn) [Example 72, 2-(3,4-dichlorophenyl)-4-(6-fluoro-2-oxo-1,2-dihydro-1′H-spiro[3,1-benzoxazine-4,4′-piperidin]-1′-yl)-N-methyl-N-(4-pyridin-4-ylbenzyl)butanamide] here?
Answer: The Ki was 0.0187 µM.

Same assay, conditions: hNK3 Ki, [3H]SR142801 displacement, membranes of HEK293 cells transiently expressing recombinant human NK3 receptor

Question: `CN(Cc1ccccc1Cl)C(=O)C(CCN1CCC2(CC1)OC(=O)N(C)c1ccc(F)cc12)c1ccc(Cl)c(Cl)c1` (stereo not drawn) [Example 44, N-(2-chlorobenzyl)-2-(3,4-dichlorophenyl)-4-(6-fluoro-1-methyl-2-oxo-1,2-dihydro-1′H-spiro[3,1-benzoxazine-4,4′-piperidin]-1′-yl)-N-methylbutanamide] was tested. Which Ki did it give?
Answer: Its Ki is 0.0016 µM.

Question: Which Ki does the source give for `O=C1Nc2ccc(F)cc2C2(CCN(CCC(C(=O)NCc3ccc(Cl)cc3Cl)c3ccc(F)cc3)CC2)O1` (stereo not drawn) [Example 47, N-(2,4-dichlorobenzyl)-4-(6-fluoro-2-oxo-1,2-dihydro-1′H-spiro[3,1-benzoxazine-4,4′-piperidin]-1′-yl)-2-(4-fluorophenyl)butanamide] here?
Answer: Its Ki is 0.0827 µM.

Question: `O=C1Nc2ccc(F)cc2C2(CCN(CCC(C(=O)NCc3ccccc3OC(F)(F)F)c3ccc(F)cc3)CC2)O1` (stereo not drawn) [Example 49, 4-(6-fluoro-2-oxo-1,2-dihydro-1′H-spiro[3,1-benzoxazine-4,4′-piperidin]-1′-yl)-2-(4-fluorophenyl)-N-[2-(trifluoromethoxy)benzyl]butanamide] was tested. Which Ki did it give?
Answer: The Ki was 0.0909 µM.

Question: Which Ki does the source give for `CN(Cc1ccc(C(F)(F)F)cc1)C(=O)C(CCN1CCC2(CC1)OC(=O)Nc1ccc(F)cc12)c1ccc(F)cc1` (stereo not drawn) [Example 51, 4-(6-fluoro-2-oxo-1,2-dihydro-1′H-spiro[3,1-benzoxazine-4,4′-piperidin]-1′-yl)-2-(4-fluorophenyl)-N-methyl-N-[4-(trifluoromethyl)benzyl]butanamide] here?
Answer: Its Ki is 0.0322 µM.

Question: `Cc1ccc(CN(C)C(=O)C(CCN2CCC3(CC2)OC(=O)Nc2ccc(F)cc23)c2ccc(F)cc2)cc1` (stereo not drawn) [Example 56, 4-(6-fluoro-2-oxo-1,2-dihydro-1′H-spiro[3,1-benzoxazine-4,4′-piperidin]-1′-yl)-2-(4-fluorophenyl)-N-methyl-N-(4-methylbenzyl)butanamide] was tested. Which Ki did it give?
Answer: The Ki was 0.0664 µM.

Question: Which Ki does the source give for `CN(Cc1cccc(C(F)(F)F)c1)C(=O)C(CCN1CCC2(CC1)OC(=O)Nc1ccc(F)cc12)c1ccc(F)cc1` (stereo not drawn) [Example 58, 4-(6-fluoro-2-oxo-1,2-dihydro-1′H-spiro[3,1-benzoxazine-4,4′-piperidin]-1′-yl)-2-(4-fluorophenyl)-N-methyl-N-[3-(trifluoromethyl)benzyl]butanamide] here?
Answer: The Ki was 0.0949 µM.

Question: For `CN(Cc1ccc(F)cc1)C(=O)C(CCN1CCC2(CC1)OC(=O)Nc1ccc(F)cc12)c1ccc(F)cc1` (stereo not drawn) [Example 59, N-(4-fluorobenzyl)-4-(6-fluoro-2-oxo-1,2-dihydro-1′H-spiro[3,1-benzoxazine-4,4′-piperidin]-1′-yl)-2-(4-fluorophenyl)-N-methylbutanamide], which Ki is on record?
Answer: The Ki was 0.0489 µM.

Question: For `CN(Cc1ccccc1)C(=O)C(CCN1CCC2(CC1)OC(=O)Nc1ccc(F)cc12)c1ccc(Cl)c(Cl)c1` (stereo not drawn) [Example 64, N-benzyl-2-(3,4-dichlorophenyl)-4-(6-fluoro-2-oxo-1,2-dihydro-1′H-spiro[3,1-benzoxazine-4,4′-piperidin]-1′-yl)-N-methylbutanamide], which Ki is on record?
Answer: The Ki was 0.0125 µM.

Question: Which Ki does the source give for `O=C1Nc2ccc(F)cc2C2(CCN(CCC(C(=O)NCc3ccccc3OC(F)(F)F)c3ccc(Cl)c(Cl)c3)CC2)O1` (stereo not drawn) [Example 66, 2-(3,4-dichlorophenyl)-4-(6-fluoro-2-oxo-1,2-dihydro-1′H-spiro[3,1-benzoxazine-4,4′-piperidin]-1′-yl)-N-[2-(trifluoromethoxy)benzyl]butanamide] here?
Answer: The Ki was 0.0288 µM.

Question: `O=C1Nc2ccc(F)cc2C2(CCN(CCC(C(=O)NCc3cccc(OC(F)F)c3)c3ccc(Cl)c(Cl)c3)CC2)O1` (stereo not drawn) [Example 67, 2-(3,4-dichlorophenyl)-N-[3-(difluoromethoxy)benzyl]4-(6-fluoro-2-oxo-1,2-dihydro-1′H-spiro[3,1-benzoxazine-4,4′-piperidin]-1′-yl)butanamide] was tested. Which Ki did it give?
Answer: Its Ki is 0.019 µM.

Question: Which Ki does the source give for `CN(Cc1ccc(C(F)(F)F)cc1)C(=O)C(CCN1CCC2(CC1)OC(=O)Nc1ccc(F)cc12)c1ccc(Cl)c(Cl)c1` (stereo not drawn) [Example 68, 2-(3,4-dichlorophenyl)-4-(6-fluoro-2-oxo-1,2-dihydro-1′H-spiro[3,1-benzoxazine-4,4′-piperidin]-1′-yl)-N-methyl-N-[4-(trifluoromethyl)benzyl]butanamide] here?
Answer: The Ki was 0.0014 µM.

Question: `COc1ccc(CN(C)C(=O)C(CCN2CCC3(CC2)OC(=O)Nc2ccc(F)cc23)c2ccc(Cl)c(Cl)c2)cc1F` (stereo not drawn) [Example 74, 2-(3,4-dichlorophenyl)-N-(3-fluoro-4-methoxybenzyl)-4-(6-fluoro-2-oxo-1,2-dihydro-1′H-spiro[3,1-benzoxazine-4,4′-piperidin]-1′-yl)-N-methylbutanamide] was tested. Which Ki did it give?
Answer: The Ki was 0.0055 µM.

Question: For `COc1cc(CN(C)C(=O)C(CCN2CCC3(CC2)OC(=O)Nc2ccc(F)cc23)c2ccc(Cl)c(Cl)c2)ccc1OC(F)F` (stereo not drawn) [Example 75, 2-(3,4-dichlorophenyl)-N-[4(difluoromethoxy)-3-methoxybenzyl]4-(6-fluoro-2-oxo-1,2-dihydro-1′H-spiro[3,1-benzoxazine-4,4′-piperidin]-1′-yl)-N-methylbutanamide], which Ki is on record?
Answer: Its Ki is 0.0077 µM.

Question: Which Ki does the source give for `CN(Cc1cccc(F)c1)C(=O)C(CCN1CCC2(CC1)OC(=O)Nc1ccc(F)cc12)c1ccc(Cl)c(Cl)c1` (stereo not drawn) [Example 76, 2-(3,4-dichlorophenyl)-N-(3-fluorobenzyl)-4-(6-fluoro-2-oxo-1,2-dihydro-1′H-spiro[3,1-benzoxazine-4,4′-piperidin]-1′-yl)-N-methylbutanamide] here?
Answer: The Ki was 0.0046 µM.

Question: How did the Ki turn out when `Cc1ccc(CN(C)C(=O)C(CCN2CCC3(CC2)OC(=O)Nc2ccc(F)cc23)c2ccc(Cl)c(Cl)c2)cc1` (stereo not drawn) [Example 77, 2-(3,4-dichlorophenyl)-4-(6-fluoro-2-oxo-1,2-dihydro-1′H-spiro[3,1-benzoxazine-4,4′-piperidin]-1′-yl)-N-methyl-N-(4-methylbenzyl)butanamide] was run?
Answer: Its Ki is 0.0046 µM.
